# In patent publication US20140303386A1, “COMPOSITIONS AND METHODS FOR ENHANCING LIPID PRODUCTION IN […] INDUCTION OF CELL CYCLE ARREST” (RUTGERS, THE STATE UNIVERSITY OF NEW JERSEY, priority 2011, published 2014):
# How the values were obtained:
# Format in all cases: cell-based
# [1] = tested on: marine diatom Phaeodactylum tricornutum; assay: Protein synthesis in treated cells; details: treated vs untreated cells
# Experimental: (§1) Cultures were grown in continuous light at approximately 70 μmol quanta m^−2s^−1, in nutrient-replete conditions (F/2 media). […] The CDK inhibitor was applied when cells were growing exponentially (cell concentration was between 250,000-700,000 cells/ml).
# [2] = tested on: marine diatom Phaeodactylum tricornutum; assay: Fatty acid content / synthesis per cell
# Experimental: as §1
# [3] = tested on: marine diatom Phaeodactylum tricornutum; assay: Cell cycle analysis (propidium iodide DNA stain, flow cytometry); details: higher dose of inhibitor
# Experimental: as §1
# [4] = tested on: marine diatom Phaeodactylum tricornutum; assay: Photosynthetic health (Fv/Fm, chlorophyll per cell, a*); details: treated vs untreated cells
# Experimental: as §1
structure (smiles),measurement,setting,value
"Nc1nc(OCC2CCCCC2)c2nc[nH]c2n1 [NU 2058, 6-(Cyclohexylmethoxy)-9H-purin-2-amine]","protein synthesis, lower than in untreated cells",[1],about 18%
same,increase in fatty acid synthesis compared to untreated cells,"[2]; 7 μM, over a period of one day",80%
same,fatty acid content per cell,[2]; higher dose of inhibitor,higher fatty acid content per cell
same,percentage of cells arrested in G1,[3],higher percentage of cells arrested in G1
same,"photosynthetic capacity (Fv/Fm, chlorophyll per cell, a*)",[4],no appreciable differences
